From patent US5698411A, “Method for determining activity of enzymes in metabolically active whole cells” (priority 1995, dated 1997)

Columns and labels:
Type in all cases: cell-based, human
[1] = test system: lymphocytes; assay: peptidase activity in leukemia and non-leukemia patients, lymphocytes (Table 6C); set-up: unit not given here
Text: (§1) Artificial intelligence was used to analyze data of cellular enzyme functions, and determine normal and disease states. Peptidases were used to distinguish leukemia from non-leukemia (output pattern). For input patterns lymphocyte and granulocyte cell types were used with aminopeptidases, cathepsins and dipeptidylpeptidase enzyme activities. In this Example, illustrated in Tables 6A-6C, three normals and three leukemia patients were used as known output patterns for the neural network to learn (in practice, the larger the learning set the more accurate unknown prediction will be). Unknowns were then presented to the learned algorithm as shown in the test case examples. Clinical diagnosis was confirmed by physicians. The trained neural network was able to correctly classify the leukemia from the non-leukemia.

[2] = test system: granulocytes; assay: peptidase activity in leukemia and non-leukemia patients, granulocytes (Table 6C); set-up: unit not given here
Text: as §1

[3] = test system: lymphocytes; assay: aberrant enzyme activities in febrile children, lymphocytes (Table 7)
[4] = test system: monocytes; assay: aberrant enzyme activities in febrile children, monocytes (Table 7)
[5] = test system: granulocytes; assay: aberrant enzyme activities in febrile children, granulocytes (Table 7)

Q: For `NCC(=O)N1CCC[C@H]1C(=O)Nc1ccc2c(c1)Oc1cc(NC(=O)[C@@H]3CCCN3C(=O)CN)ccc1C21OC(=O)c2ccccc21` [GP, (H-Gly--Pro)2 Rho .2TFA], which “enzyme activity, Lymphs” value ([1]; J4 11/21/91 acute leuk.) is on record?
A: 2.72

Q: What about the “enzyme activity, Lymphs” value ([1]; J4 12/2/91 A L) of the same molecule?
A: 3.80

Q: And the “enzyme activity, Lymphs” value ([1]; J4 12/3/91 acute leuk.)?
A: 4.17

Q: What about the “enzyme activity, Lymphs” value ([1]; J5 11/27/91 A M L) of the same molecule?
A: 3.40

Q: And the “enzyme activity, Lymphs” value ([1]; J19 11/27/91 C L L)?
A: 1.73

Q: What about the “enzyme activity, Lymphs” value ([1]; J22 12/2/91 A M L) of the same molecule?
A: 1.73

Q: What about the “enzyme activity, Lymphs” value ([1]; J22 12/9/91 A M L) of the same molecule?
A: 3.01

Q: And the “enzyme activity, Lymphs” value ([1]; N191 normal)?
A: 4.14

Q: What about the “enzyme activity, Lymphs” value ([1]; N192 normal) of the same molecule?
A: 3.00

Q: What about the “enzyme activity, Lymphs” value ([1]; N193 normal) of the same molecule?
A: 3.00

Q: What about the “enzyme activity, Lymphs” value ([1]; N194 normal) of the same molecule?
A: 5.22

Q: What about the “enzyme activity, Lymphs” value ([1]; N195 normal) of the same molecule?
A: 5.24

Q: And the “enzyme activity, Lymphs” value ([1]; N197 normal)?
A: 5.97

Q: And the “enzyme activity, Lymphs” value ([1]; N199 normal)?
A: 5.55

Q: What about the “enzyme activity, Lymphs” value ([1]; N200 normal) of the same molecule?
A: 5.38

Q: And the “enzyme activity, Lymphs” value ([1]; N201 normal)?
A: 6.53

Q: What about the “enzyme activity, Lymphs” value ([1]; N202 normal) of the same molecule?
A: 6.61

Q: And the “enzyme activity, Lymphs” value ([1]; N206 normal)?
A: 7.09

Q: What about the “enzyme activity, Lymphs” value ([1]; P68 tachycardia) of the same molecule?
A: 5.92

Q: What about the “enzyme activity, Lymphs” value ([1]; P69 pancreatic CA) of the same molecule?
A: 6.80

Q: What about the “enzyme activity, Lymphs” value ([1]; P70 cirrhosis/hemobilia) of the same molecule?
A: 6.68

Q: And the “enzyme activity, Lymphs” value ([1]; P71 ac. pyelonephritis)?
A: 3.55

Q: And the “enzyme activity, Grans” value ([2]; J4 11/21/91 acute leuk.)?
A: 10.75

Q: And the “enzyme activity, Grans” value ([2]; J4 12/2/91 A L)?
A: 11.08

Q: What about the “enzyme activity, Grans” value ([2]; J4 12/3/91 acute leuk.) of the same molecule?
A: 1.28

Q: What about the “enzyme activity, Grans” value ([2]; J5 11/27/91 A M L) of the same molecule?
A: 8.95

Q: What about the “enzyme activity, Grans” value ([2]; J19 11/27/91 C L L) of the same molecule?
A: 1.39

Q: What about the “enzyme activity, Grans” value ([2]; J22 12/2/91 A M L) of the same molecule?
A: 13.98

Q: What about the “enzyme activity, Grans” value ([2]; J22 12/9/91 A M L) of the same molecule?
A: 11.52

Q: What about the “enzyme activity, Grans” value ([2]; N191 normal) of the same molecule?
A: 11.20

Q: What about the “enzyme activity, Grans” value ([2]; N192 normal) of the same molecule?
A: 11.22

Q: What about the “enzyme activity, Grans” value ([2]; N193 normal) of the same molecule?
A: 8.87

Q: What about the “enzyme activity, Grans” value ([2]; N194 normal) of the same molecule?
A: 12.49

Q: And the “enzyme activity, Grans” value ([2]; N195 normal)?
A: 13.31

Q: What about the “enzyme activity, Grans” value ([2]; N197 normal) of the same molecule?
A: 15.85

Q: What about the “enzyme activity, Grans” value ([2]; N199 normal) of the same molecule?
A: 13.41

Q: What about the “enzyme activity, Grans” value ([2]; N200 normal) of the same molecule?
A: 12.74

Q: What about the “enzyme activity, Grans” value ([2]; N201 normal) of the same molecule?
A: 15.92

Q: And the “enzyme activity, Grans” value ([2]; N202 normal)?
A: 14.44

Q: And the “enzyme activity, Grans” value ([2]; N206 normal)?
A: 17.96

Q: And the “enzyme activity, Grans” value ([2]; P68 tachycardia)?
A: 16.08

Q: What about the “enzyme activity, Grans” value ([2]; P69 pancreatic CA) of the same molecule?
A: 16.21

Q: What about the “enzyme activity, Grans” value ([2]; P70 cirrhosis/hemobilia) of the same molecule?
A: 16.42

Q: And the “enzyme activity, Grans” value ([2]; P71 ac. pyelonephritis)?
A: 11.07

Q: What does the source list for `CC(C)C[C@H](N)C(=O)NCC(=O)Nc1ccc2c(c1)Oc1cc(NC(=O)CNC(=O)[C@@H](N)CC(C)C)ccc1C21OC(=O)c2ccccc21` [LG]?
A: enzyme activity, Lymphs ([1]; J4 11/21/91 acute leuk.): 0.16; enzyme activity, Lymphs ([1]; J4 12/2/91 A L): 0.18; enzyme activity, Lymphs ([1]; J4 12/3/91 acute leuk.): 0.19; enzyme activity, Lymphs ([1]; J5 11/27/91 A M L): 0.23; enzyme activity, Lymphs ([1]; J19 11/27/91 C L L): 0.02; enzyme activity, Lymphs ([1]; J22 12/2/91 A M L): 0.02; enzyme activity, Lymphs ([1]; J22 12/9/91 A M L): 0.61; enzyme activity, Lymphs ([1]; N199 normal): 0.85; enzyme activity, Lymphs ([1]; P68 tachycardia): 0.78; enzyme activity, Lymphs ([1]; P69 pancreatic CA): 2.00; enzyme activity, Lymphs ([1]; P70 cirrhosis/hemobilia): 0.79; enzyme activity, Lymphs ([1]; P71 ac. pyelonephritis): 0.68; enzyme activity, Grans ([2]; J4 11/21/91 acute leuk.): 0.85; enzyme activity, Grans ([2]; J4 12/2/91 A L): 0.79; enzyme activity, Grans ([2]; N200 normal): 3.40; enzyme activity, Grans ([2]; N202 normal): 2.70; enzyme activity, Grans ([2]; P70 cirrhosis/hemobilia): 2.20; enzyme activity, Grans ([2]; P71 ac. pyelonephritis): 4.00; aberrant enzyme activity, LYMPHS ([3]; P92 Adenitis): .smallcircle.; aberrant enzyme activity, LYMPHS ([3]; P97 Pyelonephritis): .smallcircle.; aberrant enzyme activity, LYMPHS ([3]; P102 UTI): .smallcircle.; aberrant enzyme activity, LYMPHS ([3]; P103 Viral Syndrome): .smallcircle.; aberrant enzyme activity, MONOS ([4]; P92 Adenitis): .smallcircle.; aberrant enzyme activity, MONOS ([4]; P96 Viral Syndrome): .smallcircle.; aberrant enzyme activity, MONOS ([4]; P97 Pyelonephritis): .smallcircle.; aberrant enzyme activity, MONOS ([4]; P101 Fever -- Unknown Origin): .smallcircle.; aberrant enzyme activity, MONOS ([4]; P103 Viral Syndrome): .smallcircle.; aberrant enzyme activity, GRANS ([5]; P92 Adenitis): .smallcircle.; aberrant enzyme activity, GRANS ([5]; P96 Viral Syndrome): .smallcircle.; aberrant enzyme activity, GRANS ([5]; P97 Pyelonephritis): .smallcircle.; aberrant enzyme activity, GRANS ([5]; P101 Fever -- Unknown Origin): .smallcircle.; aberrant enzyme activity, GRANS ([5]; P102 UTI): .smallcircle.

Q: With `C[C@@H](O)[C@H](N)C(=O)N1CCC[C@H]1C(=O)Nc1ccc2c(c1)Oc1cc(NC(=O)[C@@H]3CCCN3C(=O)[C@@H](N)[C@@H](C)O)ccc1C21OC(=O)c2ccccc21` [TP, (H-L-Thr--Pro)2 Rho 110 .2TFA] as the molecule, how does the “enzyme activity, Lymphs” value ([1]; J4 11/21/91 acute leuk.) read?
A: 2.30

Q: What about the “enzyme activity, Lymphs” value ([1]; J4 12/2/91 A L) of the same molecule?
A: 1.46

Q: What about the “enzyme activity, Lymphs” value ([1]; J4 12/3/91 acute leuk.) of the same molecule?
A: 1.18

Q: And the “enzyme activity, Lymphs” value ([1]; J5 11/27/91 A M L)?
A: 1.32

Q: What about the “enzyme activity, Lymphs” value ([1]; J19 11/27/91 C L L) of the same molecule?
A: 0.50

Q: What about the “enzyme activity, Lymphs” value ([1]; J22 12/2/91 A M L) of the same molecule?
A: 0.99

Q: And the “enzyme activity, Lymphs” value ([1]; J22 12/9/91 A M L)?
A: 1.02

Q: What about the “enzyme activity, Lymphs” value ([1]; N191 normal) of the same molecule?
A: 2.14

Q: What about the “enzyme activity, Lymphs” value ([1]; N192 normal) of the same molecule?
A: 2.12

Q: And the “enzyme activity, Lymphs” value ([1]; N193 normal)?
A: 2.33

Q: And the “enzyme activity, Lymphs” value ([1]; N194 normal)?
A: 1.82

Q: And the “enzyme activity, Lymphs” value ([1]; N195 normal)?
A: 1.90

Q: What about the “enzyme activity, Lymphs” value ([1]; N197 normal) of the same molecule?
A: 1.96

Q: What about the “enzyme activity, Lymphs” value ([1]; N199 normal) of the same molecule?
A: 1.86

Q: What about the “enzyme activity, Lymphs” value ([1]; N200 normal) of the same molecule?
A: 2.39

Q: And the “enzyme activity, Lymphs” value ([1]; N201 normal)?
A: 1.88

Q: And the “enzyme activity, Lymphs” value ([1]; N202 normal)?
A: 2.49

Q: And the “enzyme activity, Lymphs” value ([1]; N206 normal)?
A: 2.89

Q: What about the “enzyme activity, Lymphs” value ([1]; P68 tachycardia) of the same molecule?
A: 1.90

Q: What about the “enzyme activity, Lymphs” value ([1]; P69 pancreatic CA) of the same molecule?
A: 2.26

Q: And the “enzyme activity, Lymphs” value ([1]; P70 cirrhosis/hemobilia)?
A: 1.89

Q: And the “enzyme activity, Lymphs” value ([1]; P71 ac. pyelonephritis)?
A: 1.86

Q: What about the “enzyme activity, Grans” value ([2]; J4 11/21/91 acute leuk.) of the same molecule?
A: 5.96

Q: And the “enzyme activity, Grans” value ([2]; J4 12/2/91 A L)?
A: 2.59

Q: What about the “enzyme activity, Grans” value ([2]; J4 12/3/91 acute leuk.) of the same molecule?
A: 1.93

Q: And the “enzyme activity, Grans” value ([2]; J5 11/27/91 A M L)?
A: 2.72

Q: What about the “enzyme activity, Grans” value ([2]; J19 11/27/91 C L L) of the same molecule?
A: 2.95

Q: And the “enzyme activity, Grans” value ([2]; J22 12/2/91 A M L)?
A: 2.33

Q: What about the “enzyme activity, Grans” value ([2]; J22 12/9/91 A M L) of the same molecule?
A: 2.51

Q: And the “enzyme activity, Grans” value ([2]; N191 normal)?
A: 4.73

Q: What about the “enzyme activity, Grans” value ([2]; N192 normal) of the same molecule?
A: 4.62

Q: And the “enzyme activity, Grans” value ([2]; N193 normal)?
A: 4.96

Q: And the “enzyme activity, Grans” value ([2]; N194 normal)?
A: 3.77

Q: What about the “enzyme activity, Grans” value ([2]; N195 normal) of the same molecule?
A: 3.74

Q: And the “enzyme activity, Grans” value ([2]; N197 normal)?
A: 3.82

Q: And the “enzyme activity, Grans” value ([2]; N199 normal)?
A: 3.71

Q: What about the “enzyme activity, Grans” value ([2]; N200 normal) of the same molecule?
A: 4.69

Q: And the “enzyme activity, Grans” value ([2]; N201 normal)?
A: 4.23

Q: What about the “enzyme activity, Grans” value ([2]; N202 normal) of the same molecule?
A: 4.44

Q: And the “enzyme activity, Grans” value ([2]; N206 normal)?
A: 5.98

Q: What about the “enzyme activity, Grans” value ([2]; P68 tachycardia) of the same molecule?
A: 5.63

Q: What about the “enzyme activity, Grans” value ([2]; P69 pancreatic CA) of the same molecule?
A: 4.21

Q: And the “enzyme activity, Grans” value ([2]; P70 cirrhosis/hemobilia)?
A: 4.02

Q: And the “enzyme activity, Grans” value ([2]; P71 ac. pyelonephritis)?
A: 4.37
